Reference: US10889563B2, “Deoxyuridine triphosphatase inhibitors” (University of Southern California, priority 2013, dated 2021)

Key:
HCT116 cells [1] = test system: HCT116 cells
SW620 cells = test: MTS growth inhibition assay, SW620
Protocol: (§2) The Cell Titer^96 AQueous MTS assay (Promega) was carried out according to the manufacturers guidelines. […] The combination effect was determined by the combination index (CI) method utilizing Calcusyn software (Biosoft, Ferguson, Mo.). Fraction affected (FA) was calculated from the percent growth inhibition: FA=(100−% growth inhibition)/100. CI values <1, synergism; 1-1.2, additive and >1.2, antagonism.
HCT116 and SW620 cells were exposed to increasing concentrations of each agent for 72 hours and growth inhibition was directly compared to vehicle-treated controls.

A549 cells = test: MTS growth inhibition assay, A549; conditions: A549, 72 hours, 100 μmol/L single agent
Protocol: as §2
(§3) The NSCLC cell lines A549 and H1299 were exposed to increasing concentrations of each agent for 72 hours and growth inhibition was directly compared to vehicle-treated controls.

H1299 cells = test: MTS growth inhibition assay, H1299; conditions: H1299, 72 hours, 100 μmol/L single agent
Protocol: as §2, §3

[2] = test system: HCT-8 colorectal cell line model; test: Colony formation assay, HCT-8; format: cell-based; conditions: HCT-8, increasing concentrations of compound plus fixed 1 μmol/L FUdR, vs single agents
Protocol: (§1) Colony forming assay showing the ability of colon (SW620, HCT 116), non-small cell lung (A549, H460, H1299 and H358) and breast (MCF7) cancer cells to survive and proliferate following transient 24 hour exposure to single agent PCI 1013, FUdR and combinations. Specifically, cells were seeded at densities between 50 and 100 cells/well in 24-well plates. Twenty-four hours later, cells were treated with increasing concentrations of PCI 10213, a fixed dose of FUdR and combinations of these. After 24 hours, drug was removed, cells were rinsed and allowed to outgrow for 10-14 days. At the conclusion of the outgrowth, cells were fixed in 60% ice cold methanol and stained with 0.1% crystal violet, scanned and counted. Data is presented as percentage of untreated controls (mean±SD). Fraction affected and combination indexes were calculated according to the method of Chou and Talalay where <1 is indicative of a synergistic drug interaction.
Colony forming assays were subsequently performed to evaluate the effectiveness of additional PCI compounds alone and in combination with FUdR at reducing cancer cell viability in the HCT-8 colorectal cell line model. […] Subsequently, increasing concentrations of PCI compounds were combined with a fixed dose of 1 μmol/L FUdR to evaluate the combined drug effect.

[3] = test system: colorectal (HCT116), breast (MCF-7) and non-small cell lung (H1299, A549, H358 and H460) cell line models; test: Colony formation assay, all cell lines evaluated; format: cell-based; conditions: all cell lines examined (cell lines not named at b507)
Protocol: as §1
Subsequently, increasing concentrations of PCI 10213 were combined with a fixed dose of FUdR to evaluate the combined drug effect. In NSCLC cells, concentrations of PCI 10213 ranging from 3.1 μmol/L to 25 μmol/L were combined with 1 μmol/L FUdR. […] The effectiveness of this combination was pronounced in A549 and H460 cells where 12.5 and 25 μmol/L PCI 10213 combined with 1 μmol/L FUdR reduced cell viability by >95% compared to vehicle-treated controls.

HCT116 cells [4] = test: Colony formation assay, HCT116; format: cell-based; conditions: HCT116, increasing concentrations of compound plus fixed 0.5 μmol/L FUdR, vs single agents
Protocol: as §1, with “interaction. […]” for “interaction.”
In colorectal cancer cells, concentrations of PCI 10213 ranging from 3.1 μmol/L to 50 μmol/L were combined with 0.5 μmol/L FUdR in HCT116 cells and 1 μmol/L FUdR in SW620 cells.

O=c1[nH]cc(F)c(=O)[nH]1 [5-FU, 5-fluorouracil, reference compound]
growth inhibition, 5-FU alone (HCT116 cells [1]; HCT116, 0 to 100 μmol/L): dose-dependent increases in growth inhibition | growth inhibition, 5-FU alone (SW620 cells; SW620, 0 to 100 μmol/L): dose-dependent increases in growth inhibition

C[C@@H](NS(=O)(=O)CC/C=C/CC1SC(=O)NC1=O)c1cccc(OCC2CC2)c1 (some centres unmarked) [PCI 10214]
single agent activity (growth inhibition vs vehicle) (HCT116 cells [1]; HCT116, 72 hours, up to 75 μmol/L): little to no single agent activity | decrease in growth / reduction in proliferation (A549 cells): ~25% | single agent activity / decrease in proliferation (SW620 cells; SW620, 72 hours, 100 μmol/L single agent): ~30% | single agent activity (growth inhibition vs vehicle) (SW620 cells; SW620, 72 hours, up to 75 μmol/L): neither PCI 10213 or 10214 had any single agent activity | decrease in cell proliferation (H1299 cells): ≤ 40%

CC[C@@](O)(Cn1nncc1CCCNC1CCC(=O)NC1=O)c1ccc(F)c(OCC2CC2)c1 (some centres unmarked) [PCI 10927]
colonies formed / combined drug effect with FUdR [2]: Substantial reductions in colonies formed

CC[C@@](O)(Cn1nncc1CCCCc1cnc2c(c1)CCC(=O)N2)c1ccc(F)c(OCC2CC2)c1 [PCI 10928]
colonies formed / combined drug effect with FUdR [2]: Substantial reductions in colonies formed

CC[C@@](O)(Cn1nncc1CCCCC1Cc2cccc(OC)c2NC1=O)c1ccc(F)c(OCC2CC2)c1 (some centres unmarked) [PCI 10929]
colonies formed / combined drug effect with FUdR [2]: Substantial reductions in colonies formed

CC[C@@](O)(Cn1nncc1CCCCC1C(=O)Nc2ncccc21)c1ccc(F)c(OCC2CC2)c1 (some centres unmarked) [PCI 10930]
colonies formed / combined drug effect with FUdR [2]: Substantial reductions in colonies formed

CC[C@@](O)(Cn1nncc1CCCCNC1(C)CCC(=O)NC1=O)c1ccc(F)c(OCC2CC2)c1 (some centres unmarked) [PCI 10933]
colonies formed / combined drug effect with FUdR [2]: Substantial reductions in colonies formed

CC[C@@](O)(Cn1nncc1CCCCn1ccc(=O)[nH]c1=O)c1ccc(F)c(OCC2CC2)c1 [PCI 10950, reference compound]
colonies formed / combined drug effect with FUdR [2]: strong synergy | combined drug effect with fixed doses of FUdR [3]: strong synergy

CC[C@@](O)(Cn1nncc1CCCCC1CCC(=O)NC1=O)c1ccc(F)c(OCC2CC2)c1 (some centres unmarked) [PCI 10951]
colonies formed, combination with FUdR (HCT116 cells [4]): Substantial reductions in colonies formed | colonies formed / combined drug effect with FUdR [2]: Substantial reductions in colonies formed

CC[C@@](O)(Cn1nncc1CCCCCC1CCC(=O)NC1=O)c1ccc(F)c(OCC2CC2)c1 (some centres unmarked) [PCI 10952]
colonies formed, combination with FUdR (HCT116 cells [4]): modest reductions in colonies formed
